{"source": "patent US20090092650A1", "about": "“Sustained Delivery Formulations of Octreotide Compounds” (priority 2004, published 2009)", "origin": "cited, not measured here", "details": "Marbach et al. 1992", "data": [{"smiles": "C[C@@H](O)[C@@H]1NC(=O)[C@H](CCCCN)NC(=O)[C@@H](Cc2c[nH]c3ccccc23)NC(=O)[C@H](Cc2ccccc2)NC(=O)[C@@H](NC(=O)[C@H](N)Cc2ccccc2)CSSC[C@@H](C(=O)N[C@H](CO)[C@@H](C)O)NC1=O", "note": "[octreotide]", "values": [{"measurement": "Therapeutic plasma level", "result": 0.3, "unit": "ng/mL"}]}]}
